Test results from patent US20130189262A1, “IL-27 Antagonists for Treating Inflammatory Diseases” (Five Prime Therapeutics, Inc., priority 2011, published 2013).
Each block holds one molecule with its values, some of them ahead of it.

Columns and labels:
[1] = tested on: primary human bronchial epithelial cells; experiment: CXCL9 (MIG) / CXCL10 induction in air-liquid interface bronchial epithelial cells (ELISA); assay type: cell-based; details: normal donor; with and without 25 nM fluticasone; FIG. 9
[2] = tested on: primary human bronchial smooth muscle cells; experiment: Dose dependence of IL-27-induced steroid insensitivity (CXCL10/CD38 bDNA assay); assay type: cell-based; details: 5 ng/ml TNF-α, 25 nM fluticasone
Experimental: Primary human bronchial smooth muscle cells were cultured in the presence of 5 ng/ml TNF-α, 25 nM fluticasone, and increasing concentrations of linked IL-27 (Cat. No. 2526-IL; R&D Systems, Minneapolis, Minn.). CXCL10 and CD38 expression levels were determined by bDNA assay.

[3] = tested on: primary human bronchial smooth muscle cells; experiment: CXCL10 expression with combinations of TNF-α, IL-27 and fluticasone (bDNA assay); assay type: cell-based; details: for CXCL10 expression, factor alone: single factor alone (5 ng/ml TNF-α; 1 μg/ml linked IL-27; IFN-γ), FIG. 4
Experimental: Primary human bronchial smooth muscle cells were cultured in the presence of 5 ng/ml TNF-αalone, 5 ng/ml TNF-α and 25 nM fluticasone; 1 μg/ml linked IL-27; 5 ng/ml TNF-α and 30 ng/ml IL-27; or 5 ng/ml TNF-α, 25 nM fluticasone, and 30 ng/ml IL-27. CXCL10 expression was determined by bDNA assay.

[4] = tested on: primary human bronchial smooth muscle cells; experiment: CXCL10 expression with TNF-α, fluticasone and IL-12 family cytokine supernatants (bDNA assay); assay type: cell-based; details: 5 ng/ml TNF-α, 25 nM fluticasone, 293T supernatant; FIG. 5
Experimental: Primary human bronchial smooth muscle cells were cultured in the presence of 5 ng/ml TNF-α, 25 nM fluticasone, and a supernatant from 293T cells expressing IL-27 subunit EBI3 alone, IL-27 subunit p28 alone, IL-12 (comprised of p35 and p40), IL-35 (comprised of p35 and EBI3), IL-23 (comprised of p19 and p40), or IL-27 (comprised of p28 and EBI3). CXCL10 expression was determined by bDNA assay.

[5] = tested on: primary human bronchial smooth muscle cells; experiment: Screen for factors inducing steroid resistance: CXCL10 and CD38 expression (bDNA) in bronchial smooth muscle cells with TNF-α and fluticasone; assay type: cell-based; details: 5 ng/ml TNF-α, 25 nM fluticasone
Experimental: In order to identify factors that induce a steroid-resistant state, an assay was set up as follows. Primary human bronchial smooth muscle cells were cultured in the presence of 5 ng/ml TNF-α and 25 nM fluticasone and a test substance. Steroid sensitivity was determined by detecting expression levels of CXCL10 (IP-10) and CD38 using a bDNA assay (QuantiGene® Plex 2.0; Panomics, Santa Clara, Calif.). Expression of each of those genes is suppressed by steroids, such as fluticasone. If a factor induces a steroid-insensitive state, expression of those genes should increase. Interferon family proteins were included as test substances as positive controls.
Using this assay, a library of over 4000 secreted and extracellular domain protein test substances were screened to identify test substances that induce a steroid-resistant state. The test substances were individually expressed in 293T cells and the cell supernatants used to test each substance in the assay.

[6] = tested on: primary bronchial smooth muscle cells (BSMCs); experiment: WSX-1 expression in bronchial smooth muscle cells treated with factors (quantitative RT-PCR); assay type: cell-based, human; details: 5 ng/ml TNF-α; FIG. 7
Experimental: The effect of various factors on WSX-1 expression was then determined in primary bronchial smooth muscle cells (BSMCs). The BSMCs were treated with 5 ng/ml TNF-α, 10 ng/ml IFN-γ, 5 ng/ml TNF-α and 10 ng/ml IFN-γ, or 5 ng/ml TNF-α and 10 ng/ml IFN-γ and 25 nM fluticasone. WSX-1 expression was determined by quantitative RT-PCR and normalized to RPL19.

[7] = biological target: T1, human IL-27 (Homo sapiens, UniProt Q14213+Q8NEV9); experiment: Inhibition of IL-27-induced CXCL10 expression in bronchial smooth muscle cells (ELISA); assay type: cell-based; details: 0.2 to 20 μg/mL preincubated with 5 ng/mL linked or native human IL-27 and 5 ng/mL TNF-α; FIG. 11
T1 construct: made in house
T1 sequence (Q8NEV9 29-243): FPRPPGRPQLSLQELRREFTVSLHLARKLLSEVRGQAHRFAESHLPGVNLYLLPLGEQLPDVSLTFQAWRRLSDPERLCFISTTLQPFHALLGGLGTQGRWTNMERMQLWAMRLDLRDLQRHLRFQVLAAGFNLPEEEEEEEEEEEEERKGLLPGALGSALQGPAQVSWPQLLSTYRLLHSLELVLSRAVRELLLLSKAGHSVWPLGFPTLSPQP
T1 sequence (Q14213 21-229): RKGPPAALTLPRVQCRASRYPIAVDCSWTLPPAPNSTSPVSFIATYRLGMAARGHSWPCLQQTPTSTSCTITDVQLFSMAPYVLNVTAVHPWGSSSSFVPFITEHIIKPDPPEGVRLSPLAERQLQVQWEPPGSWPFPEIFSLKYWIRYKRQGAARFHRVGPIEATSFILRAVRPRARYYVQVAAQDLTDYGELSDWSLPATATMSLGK
Experimental: Various concentrations of an IL-27 antagonist, WSX-1 ECD (0.2 to 20 μg/mL), were preincubated with 5 ng/mL of human IL-27 in the presence of 5 ng/mL of human TNF-α. Both linked and native human IL-27 were tested. Human linked IL-27 was obtained from R&D Systems and is produced with a linker between the p28 subunit and the EBI3 subunit. Native IL-27 was produced and purified in house by transfecting mammalian cells with separate vectors expressing each subunit and purifying the resulting p28/EBI3 (IL-27) heterodimer from the cell culture supernatant. Following the preincubation of WSX-1 ECD with IL-27 and TNF-α, the stimulus was added to primary human bronchial smooth muscle cells in culture. CXCL10 expression was determined by ELISA.
Various concentrations of a polyclonal antibody against human IL-27 (0.4 to 50 μg/mL; R&D Systems) were preincubated with 10 ng/mL of native human IL-27 in the presence of 5 ng/mL of human TNF-α. Following the preincubation of polyclonal antibody with IL-27 and TNF-α, the stimulus was added to primary human bronchial smooth muscle cells in culture. CXCL10 expression was determined by ELISA.

- EC50 ([2]; linked IL-27, FIG. 3, read-out: EC50 for CXCL10 expression in the presence of fluticasone): 0.372 nM
Molecule: IL-27: heterodimeric cytokine comprising the subunits p28 and EBI3; linked IL-27 from R&D Systems (Cat. No. 2526-IL)
- steroid sensitivity of IL-27 induction of CXCL10 expression [1]: steroid-insensitive at all concentrations of IL-27
- steroid insensitivity (CXCL10 expression in the presence of fluticasone) ([2]; increasing concentrations of linked IL-27): induced steroid-insensitivity in a dose-dependent manner
- expression of CD38 ([2]; increasing concentrations of linked IL-27, data not shown): increased with increasing concentration
- CXCL10 expression, in combination with TNF-α ([3]; 5 ng/ml TNF-α and 30 ng/ml IL-27): very high CXCL10 expression
- CXCL10 expression, factor alone [3]: did not affect expression of CXCL10
- synergistic increase of CXCL10 expression in the presence of TNF-α and fluticasone [4]: synergistically increased CXCL10 expression
- fold-change in CXCL10 expression (screen) ([5]; 293T supernatant of test substance, FIG. 1): positive data points
- effect on CD38 expression (two retests) ([5]; FIG. 2): positive data points

Molecule: C[C@@H]1C[C@H]2[C@@H]3C[C@H](F)C4=CC(=O)C=C[C@]4(C)[C@@]3(F)[C@@H](O)C[C@]2(C)[C@@]1(O)C(=O)SCF [fluticasone, reference compound]
- effect on CXCL10 expression induced by IL-27 and TNF-α ([3]; 5 ng/ml TNF-α, 25 nM fluticasone, 30 ng/ml IL-27): no effect

Molecule: TNF-α
- WSX-1 expression normalized to RPL19 [6]: up-regulated
- CXCL10 expression, factor alone [3]: increased expression of CXCL10

Molecule: IFN-γ: interferon family protein, positive control in the screen
- CXCL10 expression, factor alone [3]: did not induce CXCL10 expression

B1: WSX-1 ECD: IL-27 antagonist; WSX-1 polypeptide that lacks the intracellular and transmembrane domains (protein, UniProt Q6UWB1 33-516, looked up)
extracellular domain: QGSAGPLQCYGVGPLGDLNCSWEPLGDLGAPSELHLQSQKYRSNKTQTVAVAAGRSWVAIPREQLTMSDKLLVWGTKAGQPLWPPVFVNLETQMKPNAPRLGPDVDFSEDDPLEATVHWAPPTWPSHKVLICQFHYRRCQEAAWTLLEPELKTIPLTPVEIQDLELATGYKVYGRCRMEKEEDLWGEWSPILSFQTPPSAPKDVWVSGNLCGTPGGEEPLLLWKAPGPCVQVSYKVWFWVGGRELSPEGITCCCSLIPSGAEWARVSAVNATSWEPLTNLSLVCLDSASAPRSVAVSSIAGSTELLVTWQPGPGEPLEHVVDWARDGDPLEKLNWVRLPPGNLSALLPGNFTVGVPYRITVTAVSASGLASASSVWGFREELAPLVGPTLWRLQDAPPGTPAIAWGEVPRHQLRGHLTHYTLCAQSGTSPSVCMNVSGNTQSVTLPDLPWGPCELWVTASTIAGQGPPGPILRLHLPDNTLRWK
modifications: extracellular domain
notes: IL-27 antagonist; WSX-1 polypeptide that lacks the intracellular and transmembrane domains
- inhibition of IL-27-induced expression of CXCL10 [7]: inhibited IL-27-induced expression of CXCL10
